Experiment [1] addresses T1, MMP-3 (Homo sapiens, UniProt P08254).
T1 construct: purchased BioMol International AK-400
Description: Matrix Metalloproteinase 3 Enzyme Activity (MMP-3) Assay (BioMol AK-400). It counts as biochemical. To be noted: thiopeptide chromogenic substrate, absorbance 412 nm. The source says: (§1) MMPs are extracellular proteases that play a role in many normal and disease states by virtue of their broad substrate specificity. MMP-3 substrates include collagens, fibronectins, and laminin; while MMP-9 substrates include collagen VII, fibronectins and laminin. Colorimetric Drug Discovery kits from BioMol International for MMP-3 (AK-400) and MMP-9 (AK-410) were used to measure protease activity of MMPs using a thiopeptide as a chromogenic substrate (Ac-PLG-[2-mercapto-4-methyl-pentanoyl]-LG-OC2H5)5,6. The MMP cleavage site peptide bond is replaced by a thioester bond in the thiopeptide. Hydrolysis of this bond by an MMP produces a sulfhydryl group, which reacts with DTNB [5,5′-dithiobis(2-nitrobenzoic acid), Ellman's reagent] to form 2-nitro-5-thiobenzoic acid, which can be detected by its absorbance at 412 nm (ε=13,600 M−1 cm−1 at pH 6.0 and above 7). It was determined that Rosmarinus officinalis leaf extract inhibited MMP-3 by 40%, Morus alba fruit extract inhibited by 29%, and tetrahexyldecyl ascorbate inhibited by 38%. It was determined that Rosmarinus officinalis leaf extract inhibited MMP-9 by 61%, Morus alba fruit extract inhibited by 84%, tetrahexyldecyl ascorbate inhibited by 11%, and Acmella oleracea extract inhibited by 80%.

In experiment [2] the test system is procollagen-1. Description: Collagen Stimulation Assay (PICP ELISA, Takara #MK101). Type of experiment: cell-based. To be noted: normal human adult epidermal fibroblasts treated 3 days, culture medium. The source says:
Collagens (types I, II, III, IV and V) are synthesized as precursor molecules called procollagens. These precursor molecules contain additional peptide sequences, usually called “propeptides”, at both the amino-terminal and the carboxy-terminal ends. During cellular expression and secretion, procollagens are assembled in the trimeric form and then cleaved at specific N- and C-terminal sites by specific endopeptidases, generating three fragments: procollagen-1 N-terminal propeptide (PINP), Type I collagen, and procollagen-1 carboxy-terminal propeptide (PICP).
The function of the propeptides is to facilitate the winding of procollagen molecules into a triple-helical conformation within the endoplasmic reticulum. […]
Quantitative detection of PICP in fibroblast cell extracts and culture supernatants was performed with an enzyme immunoassay kit (e.g., Takara #MK101) to assess the effects of the ingredients on the synthesis of PICP in skin. […] The assay employed the quantitative sandwich enzyme immunoassay technique whereby a monoclonal antibody specific for procollagen peptide was pre-coated onto a microplate. […] Color development was stopped and the intensity of the color at 450 nm was measured using a microplate reader. […]
(In an ELISA, binding on a coated surface is turned into a signal by an enzyme label.)

Experiment [3] concerns IL-6. Description: Inhibition of IL-6.
For experiment [4], the target named is T2, MMP-9 (Homo sapiens, UniProt P14780).
T2 construct: purchased BioMol International AK-410
The experiment can be described thus: Matrix Metalloproteinase 9 Enzyme Activity (MMP-9) Assay (BioMol AK-410). Type of experiment: biochemical. To be noted: thiopeptide chromogenic substrate, absorbance 412 nm.
Text: as §1

Experiment [5] deals with TNF-α. The experiment can be described thus: Tumor Necrosis Factor Alpha (TNF-α) Assay (ELISA, PMA-treated keratinocytes). Type of experiment: cell-based. To be noted: normal human adult keratinocytes, PMA 10 ng/ml, 6 hours. The source says: Tumor Necrosis Factor Alpha (TNF-α) Assay: Rosmarinus officinalis leaf extract and saccharide isomerate inhibit TNF-α activity. The prototype ligand of the TNF superfamily, TNF-α, is a pleiotropic cytokine that plays a central role in inflammation. Increase in its expression is associated with an up regulation in pro-inflammatory activity. The bioassay used analyzed the effect of Rosmarinus officinalis leaf extract and saccharide isomerate on the production of TNF-α by human epidermal keratinocytes. The endpoint of this assay was a spectrophotometric measurement that reflects the presence of TNF-α and cellular viability. The assay employed the quantitative sandwich enzyme immunoassay technique whereby a monoclonal antibody specific for TNF-α had been pre-coated onto a microplate.
Standards and samples were pipetted into wells of the microplate and any TNF-α present was bound by the immobilized antibody. After washing away any unbound substances, an enzyme-linked polyclonal antibody specific for TNF-α was added to the wells. Following a wash to remove any unbound antibody-enzyme reagent, a substrate solution was added to the wells and color developed in proportion to the amount of TNF-α bound in the initial step using a microplate reader for detection at 450 nm. The color development can be stopped and the intensity of the color was measured. […]

T1 sequence (P08254 100-272 limits assumed): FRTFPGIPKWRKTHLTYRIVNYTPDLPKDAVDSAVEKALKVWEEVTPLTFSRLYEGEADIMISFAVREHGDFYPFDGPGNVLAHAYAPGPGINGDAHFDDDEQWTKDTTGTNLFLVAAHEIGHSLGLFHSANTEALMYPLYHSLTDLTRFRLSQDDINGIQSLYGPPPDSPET
T2 sequence (P14780 107-444 limits assumed): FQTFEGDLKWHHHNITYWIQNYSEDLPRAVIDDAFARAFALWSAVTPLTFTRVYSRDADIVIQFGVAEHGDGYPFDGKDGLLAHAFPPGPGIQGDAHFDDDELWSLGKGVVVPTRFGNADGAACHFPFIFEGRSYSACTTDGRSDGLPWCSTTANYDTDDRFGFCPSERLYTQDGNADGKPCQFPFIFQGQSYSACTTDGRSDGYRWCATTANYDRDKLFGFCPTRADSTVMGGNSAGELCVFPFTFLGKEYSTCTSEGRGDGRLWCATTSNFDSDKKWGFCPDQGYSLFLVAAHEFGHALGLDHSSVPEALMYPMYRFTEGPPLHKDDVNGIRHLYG

Regarding `CCCCCCCCC(CCCCCC)C(=O)OC[C@H](OC(=O)C(CCCCCC)CCCCCCCC)[C@H]1OC(=O)C(OC(=O)C(CCCCCC)CCCCCCCC)=C1OC(=O)C(CCCCCC)CCCCCCCC` (some centres unmarked) [Tetrahexyldecyl ascorbate], the “Inhibit MMP-3, Change (%)” value in experiment [1] is recorded as 38%. In experiment [2], the “Increase Collagen Expression (procollagen-1), Change (%)” value was 50%. For the same compound, the “Inhibit IL-6, Change (%)” value in experiment [3] worked out at 38%. Also, the “Inhibit MMP-9, Change (%)” value in experiment [4] worked out at 11%.

For Saccharide isomerate, in experiment [5], the “Inhibit TNF-α, Change (%)” value turned out to be 88%.

These data come from US12661313B2, “Cosmetic composition” (MARY KAY INC., priority 2019, dated 2026).
